These results are taken from patent US12084467B2, “Therapeutic compounds for HIV virus infection” (Gilead Sciences, Inc., priority 2021, dated 2024).

Data set [1] in a line: Kinetic solubility analysis (CLND: total chemiluminescent nitrogen determination). The note with it: 1.0% DMSO, 24-hour incubation at ambient temperature, maximum theoretical concentration 100 μM; for pH 2 solubility: 0.1N HCl; for pH 7 solubility: 1×PBS buffer (pH 7.4).
Data set [2] in a line: physchem. The conditions noted are these: 25 °C, fassif, thermodynamic from solid.
A short description of data set [3]: Solubility in simulated intestinal fluids (FaSSIF / FeSSIF). The note with it: 25 °C, thermodynamic from solid.
A short description of data set [4]: Oral bioavailability PK in dog. Format: in vivo. The conditions noted are these: Beagle dog, oral gavage, solution vehicle 5% ethanol, 20% propylene glycol, 75% water; based on observed exposure of Intermediate 5 in plasma.
Experimental: Oral dose (suspension and solution vehicle) of the compound being tested was administered via gavage in rat (Sprague Dawley) and dog (Beagle). Serial blood samples were collected via jugular vein into pre-chilled K2EDTA with 2 mM dichlorvos (final concentration) for up to 168 h. Whole blood was processed into plasma by centrifuge (3000 rpm for 10 minutes at 5C) within 30 minutes of collection.
Plasma samples were analyzed by direct protein precipitation with acetonitrile and further dilution with water before injecting onto Sciex API 5500 LC/MS/MS system for analysis.
AUC was calculated as Area under the plasma concentration vs. time curve from 0 h to infinity.
The solution vehicles used were 1) 5% ethanol, 20% propylene glycol, and 75% water and 2) 30% 10 mM HCl, 5% ethanol, 45% polyethylene glycol 300, and 20% propylene glycol.
Where [5] appears, read: fasted state simulated intestinal fluid (FaSSIF), fassif.
The mark [6] stands for this setting: fed state simulated intestinal fluid (FeSSIF), fessif.

≈ marks a conversion by molar mass, not a printed value. A value given as a limit tells only on which side of the number the result lay.

`CC(C)(C#Cc1ccc(-c2ccc(Cl)c3c(N(C(=O)[C@H]4C[C@H]4C(=O)OCOP(=O)(O)O)S(C)(=O)=O)nn(CC(F)(F)F)c23)c([C@H](Cc2cc(F)cc(F)c2)NC(=O)Cn2nc(C(F)(F)F)c3c2C(F)(F)[C@@H]2C[C@H]32)n1)S(C)(=O)=O` [Compound 12, (phosphonooxy)methyl (1R,2S)-2-((4-chloro-7-(2-((S)-1-(2-((3bS,4aR)-5,5-difluoro-3-(trifluoromethyl)-3b,4,4a,5-tetrahydro-1H-cyclopropa[3,4]cyclopenta[1,2-c]pyrazol-1-yl)acetamido)-2-(3,5-difluorophenyl)ethyl)-6-(3-methyl-3-(methylsulfonyl)but-1-yn-1-yl)pyridin-3-yl)-1-(2,2,2-trifluoroethyl)-1H-indazol-3-yl)(methylsulfonyl)carbamoyl)cyclopropane-1-carboxylate]: in data set [1], the “pH 2 solubility” value is recorded as 1 μM and the “pH 7 solubility” value stood at 71 μM. Moreover, the solubility in data set [2] was 2100 µg/mL (≈ 1760 µM).

On to `CC(C)(C#Cc1ccc(-c2ccc(Cl)c3c(N(C(=O)[C@H]4C[C@H](C(=O)O)C4)S(C)(=O)=O)nn(CC(F)(F)F)c23)c([C@H](Cc2cc(F)cc(F)c2)NC(=O)Cn2nc(C(F)(F)F)c3c2C(F)(F)[C@@H]2C[C@H]32)n1)S(C)(=O)=O` [Compound 13, (1S,3r)-3-((4-chloro-7-(2-((S)-1-(2-((3bS,4aR)-5,5-difluoro-3-(trifluoromethyl)-3b,4,4a,5-tetrahydro-1H-cyclopropa[3,4]cyclopenta[1,2-c]pyrazol-1-yl)acetamido)-2-(3,5-difluorophenyl)ethyl)-6-(3-methyl-3-(methylsulfonyl)but-1-yn-1-yl)pyridin-3-yl)-1-(2,2,2-trifluoroethyl)-1H-indazol-3-yl)(methylsulfonyl)carbamoyl)cyclobutane-1-carboxylic acid], for which, in data set [1], the “pH 2 solubility” value is reported as 1 μM and the “pH 7 solubility” value is listed as 15 μM. In addition, the concentration in solution in data set [2] (solubility) was 9 µg/mL (≈ 8.22 µM).

For `CC(C)(C#Cc1ccc(-c2ccc(Cl)c3c(N(C(=O)[C@H]4C[C@@H](C(=O)O)C4)S(C)(=O)=O)nn(CC(F)(F)F)c23)c([C@H](Cc2cc(F)cc(F)c2)NC(=O)Cn2nc(C(F)(F)F)c3c2C(F)(F)[C@@H]2C[C@H]32)n1)S(C)(=O)=O` [Compound 14, ((1R,3s)-3-((4-chloro-7-(2-((S)-1-(2-((3bS,4aR)-5,5-difluoro-3-(trifluoromethyl)-3b,4,4a,5-tetrahydro-1H-cyclopropa[3,4]cyclopenta[1,2-c]pyrazol-1-yl)acetamido)-2-(3,5-difluorophenyl)ethyl)-6-(3-methyl-3-(methylsulfonyl)but-1-yn-1-yl)pyridin-3-yl)-1-(2,2,2-trifluoroethyl)-1H-indazol-3-yl)(methylsulfonyl)carbamoyl)cyclobutane-1-carboxylic acid)], in data set [1], the “pH 2 solubility” value turned out to be 1 μM and the “pH 7 solubility” value stood at 8 μM. Also, the solubility in data set [2] came out at 9 µg/mL (≈ 8.22 µM).

`CC(C)(C#Cc1ccc(-c2ccc(Cl)c3c(N(C(=O)N4CCC[C@H]4C(=O)OCOP(=O)(O)O)S(C)(=O)=O)nn(CC(F)(F)F)c23)c([C@H](Cc2cc(F)cc(F)c2)NC(=O)Cn2nc(C(F)(F)F)c3c2C(F)(F)[C@@H]2C[C@H]32)n1)S(C)(=O)=O` [Compound 27, (phosphonooxy)methyl ((4-chloro-7-(2-((S)-1-(2-((3bS,4aR)-5,5-difluoro-3-(trifluoromethyl)-3b,4,4a,5-tetrahydro-1H-cyclopropa[3,4]cyclopenta[1,2-c]pyrazol-1-yl)acetamido)-2-(3,5-difluorophenyl)ethyl)-6-(3-methyl-3-(methylsulfonyl)but-1-yn-1-yl)pyridin-3-yl)-1-(2,2,2-trifluoroethyl)-1H-indazol-3-yl)(methylsulfonyl)carbamoyl)-L-prolinate]: in data set [1], the “pH 2 solubility” value is reported as 2 μM and the “pH 7 solubility” value was found to be 68 μM. Besides, the solubility in data set [2] came out at 512 µg/mL (≈ 420 µM).

With `CC(C)(C#Cc1ccc(-c2ccc(Cl)c3c(N(C(=O)N4CCC[C@H]4CN(CCC(=O)O)C(=O)OCOP(=O)(O)O)S(C)(=O)=O)nn(CC(F)(F)F)c23)c([C@H](Cc2cc(F)cc(F)c2)NC(=O)Cn2nc(C(F)(F)F)c3c2C(F)(F)[C@@H]2C[C@H]32)n1)S(C)(=O)=O` [Compound 34, 3-((((S)-1-((4-chloro-7-(2-((S)-1-(2-((3bS,4aR)-5,5-difluoro-3-(trifluoromethyl)-3b,4,4a,5-tetrahydro-1H-cyclopropa[3,4]cyclopenta[1,2-c]pyrazol-1-yl)acetamido)-2-(3,5-difluorophenyl)ethyl)-6-(3-methyl-3-(methylsulfonyl)but-1-yn-1-yl)pyridin-3-yl)-1-(2,2,2-trifluoroethyl)-1H-indazol-3-yl)(methylsulfonyl)carbamoyl)pyrrolidin-2-yl)methyl)(((phosphonooxy)methoxy)carbonyl)amino)propanoic acid], in data set [1], the “pH 2 solubility” value was 1 μM and the “pH 7 solubility” value was determined as 100 μM. Further, the solubility in data set [3] (setting [5]) is 861 µg/mL (≈ 652 µM). The concentration in solution in data set [3] (setting [6]) (solubility) was 1710 µg/mL (≈ 1290 µM).

Turning to `CC(C)(C#Cc1ccc(-c2ccc(Cl)c3c(N(C(=O)N4CC[C@@H]4CN(CC(=O)O)C(=O)OCOP(=O)(O)O)S(C)(=O)=O)nn(CC(F)(F)F)c23)c([C@H](Cc2cc(F)cc(F)c2)NC(=O)Cn2nc(C(F)(F)F)c3c2C(F)(F)[C@@H]2C[C@H]32)n1)S(C)(=O)=O` [Compound 36, N—(((R)-1-((4-chloro-7-(2-((S)-1-(2-((3bS,4aR)-5,5-difluoro-3-(trifluoromethyl)-3b,4,4a,5-tetrahydro-1H-cyclopropa[3,4]cyclopenta[1,2-c]pyrazol-1-yl)acetamido)-2-(3,5-difluorophenyl)ethyl)-6-(3-methyl-3-(methylsulfonyl)but-1-yn-1-yl)pyridin-3-yl)-1-(2,2,2-trifluoroethyl)-1H-indazol-3-yl)(methylsulfonyl)carbamoyl)azetidin-2-yl)methyl)-N-(((phosphonooxy)methoxy)carbonyl)glycine], the “pH 2 solubility” value in data set [1] was determined as 1 μM. In data set [1], the “pH 7 solubility” value is reported as 100 μM. The values for the solubility in data set [3] (setting [5]) and in data set [3] (setting [6]) were above 7400 µg/mL and above 5930 µg/mL, respectively.

In the case of `CC(C)(C#Cc1ccc(-c2ccc(Cl)c3c(N(C(=O)N4CCOC[C@@H]4CN(CC(=O)O)C(=O)OCOP(=O)(O)O)S(C)(=O)=O)nn(CC(F)(F)F)c23)c([C@H](Cc2cc(F)cc(F)c2)NC(=O)Cn2nc(C(F)(F)F)c3c2C(F)(F)[C@@H]2C[C@H]32)n1)S(C)(=O)=O` [Compound 37, N—(((S)-4-((4-chloro-7-(2-((S)-1-(2-((3bS,4aR)-5,5-difluoro-3-(trifluoromethyl)-3b,4,4a,5-tetrahydro-1H-cyclopropa[3,4]cyclopenta[1,2-c]pyrazol-1-yl)acetamido)-2-(3,5-difluorophenyl)ethyl)-6-(3-methyl-3-(methylsulfonyl)but-1-yn-1-yl)pyridin-3-yl)-1-(2,2,2-trifluoroethyl)-1H-indazol-3-yl)(methylsulfonyl)carbamoyl)morpholin-3-yl)methyl)-N-(((phosphonooxy)methoxy)carbonyl)glycine], in data set [1], the “pH 2 solubility” value is listed as 2 μM. Further, in data set [1], the “pH 7 solubility” value stood at 100 μM. Besides, the solubility was 6200 µg/mL (≈ 4690 µM) in data set [3] (setting [5]) and above 8370 µg/mL in data set [3] (setting [6]).

For the compound `CC(C)(C#Cc1ccc(-c2ccc(Cl)c3c(NS(C)(=O)=O)nn(CC(F)(F)F)c23)c([C@H](Cc2cc(F)cc(F)c2)NC(=O)Cn2nc(C(F)(F)F)c3c2C(F)(F)[C@@H]2C[C@H]32)n1)S(C)(=O)=O` [Intermediate 5, N—((S)-1-(3-(4-chloro-3-(methylsulfonamido)-1-(2,2,2-trifluoroethyl)-1H-indazol-7-yl)-6-(3-methyl-3-(methylsulfonyl)but-1-yn-1-yl)pyridin-2-yl)-2-(3,5-difluorophenyl)ethyl)-2-((3bS,4aR)-5,5-difluoro-3-(trifluoromethyl)-3b,4,4a,5-tetrahydro-1H-cyclopropa[3,4]cyclopenta[1,2-c]pyrazol-1-yl)acetamide, reference compound], in data set [1], the “pH 2 solubility” value was found to be 0.11 μM and the “pH 7 solubility” value is 0.32 μM. The “Dog F % (solution)” value in data set [4] worked out at 16%.
